# Source: patent US12492173B2, “Herbicidal substituted N-tetrazolyl aryl carboxamides” (Bayer Aktiengesellschaft, priority 2019, dated 2025)
# Experiments:
# Type in all cases: in vivo
# Echinochloa crus-galli = assay: Pre-emergence herbicidal action, ECHCG; design: key to Herbicidal action against ECHCG: % activity: 100 = plants have died, 0 = like control plants; settings: for pest or weed control at 20 g/ha: Echinochloa crus-galli, 504 h, read-out: Herbicidal action against ECHCG
# In short: (§1)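 Greenhouse pre-emergence test: formulated compound (WP or EC) applied in water to the soil covering sown seeds, 600–800 l/ha, 0.2% wetting agent. Scored visually in percent at 3 weeks versus untreated plants.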
# Stellaria media [1] = assay: Pre-emergence herbicidal action, STEME; design: key to Herbicidal action against STEME: % activity: 100 = plants have died, 0 = like control plants; settings: for Herbicidal action against STEME: comparative experiment, 20 g of a.i./ha
# In short: as §1
# Setaria viridis = assay: Pre-emergence herbicidal action, SETVI; design: key to Herbicidal action against SETVI: % activity: 100 = plants have died, 0 = like control plants; settings: for Herbicidal action against SETVI: comparative experiment, 20 g of a.i./ha
# In short: as §1
# Matricaria inodora = assay: Pre-emergence herbicidal action, MATIN; design: key to Herbicidal action against MATIN: % activity: 100 = plants have died, 0 = like control plants; settings: for Herbicidal action against MATIN: comparative experiment, 20 g of a.i./ha
# In short: as §1
# Pharbitis purpurea = assay: Pre-emergence herbicidal action, PHBPU; settings: dosage 320 g/ha, scored visually after 3 weeks vs untreated controls (100% = plants have died)
# Source text: (§2) 1. Pre-Emergence Herbicidal Action Against Harmful Plants Seeds of monocotyledonous and dicotyledonous weed plants and crop plants are laid out in sandy loam soil in wood-fiber pots and covered with soil. The compounds of the invention, formulated in the form of wettable powders (WP) or as emulsion concentrates (EC), are then applied to the surface of the covering soil in the form of an aqueous suspension or emulsion at a water application rate equating to 600 to 800 l/ha, with addition of 0.2% wetting agent. After the treatment, the pots are placed in a greenhouse and kept under good growth conditions for the trial plants. The damage to the test plants is scored visually after a test period of 3 weeks by comparison with untreated controls (herbicidal activity in percent (%): 100% activity=the plants have died, 0% activity=like control plants). […] The tables below illustrate, in an exemplary manner, the […] herbicidal action of the compounds according to the invention, the herbicidal activity being stated in percent. [table] In the experiments that follow, herbicidal action of numerous inventive compounds and the known compounds that are structurally closest from D1 (WO 2012/028579 A1) and D2 (WO 2018/202535 A1) were compared under the above-specified conditions by the pre-emergence and post-emergence method. The example numbers given in the tables relate to the compounds disclosed in the respective documents. In addition to the compounds disclosed in D1 and D2, the following compounds V-1 to V-14 that are encompassed by D1 or D2 but are not compounds specified therein were used in the comparative experiments: • V-1: 2-(methylsulfanyl)-3-(methylsulfinyl)-N-(1-methyl-1H-tetrazol-5-yl)-4-(trifluoromethyl)benzamide • V-2: 2-(methylsulfanyl)-3-(methylsulfonyl)-N-(1-methyl-1H-tetrazol-5-yl)-4-(trifluoromethyl)benzamide • V-3: 2,3-bis(ethylsulfanyl)-N-(1-methyl-1H-tetrazol-5-yl)-4-(trifluoromethyl)benzamide • V-4: 2-chloro-3-(ethylsulfanyl)-N-(1-methyl-1H-tetrazol-5-yl)-4-(trifluoromethyl)benzamide • V-5: 2-chloro-4-iodo-3-(methylsulfanyl)-N-(1-methyl-1H-tetrazol-5-yl)benzamide • V-6: 2-chloro-4-iodo-3-(methylsulfinyl)-N-(1-methyl-1H-tetrazol-5-yl)benzamide • V-7: 2-chloro-4-iodo-3-(methylsulfonyl)-N-(1-methyl-1H-tetrazol-5-yl)benzamide • V-8: 2-bromo-3-(methylsulfanyl)-N-(1-methyl-1H-tetrazol-5-yl)-4-(trifluoromethyl)benzamide • V-9: 2-bromo-3-(methylsulfinyl)-N-(1-methyl-1H-tetrazol-5-yl)-4-(trifluoromethyl)benzamide • V-10: 2-bromo-3-(methylsulfonyl)-N-(1-methyl-1H-tetrazol-5-yl)-4-(trifluoromethyl)benzamide • V-11: 2-bromo-3-(ethylsulfanyl)-N-(1-methyl-1H-tetrazol-5-yl)-4-(trifluoromethyl)benzamide • V-12: 2-bromo-3-(ethylsulfinyl)-N-(1-methyl-1H-tetrazol-5-yl)-4-(trifluoromethyl)benzamide • V-13: 2-bromo-3-(ethylsulfonyl)-N-(1-methyl-1-1H-tetrazol-5-yl)-4-(trifluoromethyl)benzamide • V-14: 2-cyclopropyl-3-(ethylsulfanyl)-N-(1-methyl-1H-tetrazol-5-yl)-4-(trifluoromethyl)benzamide Herbicidal Pre-Emergence Action: […]
# Amaranthus retroflexus [2] = assay: Pre-emergence herbicidal action, AMARE; design: key to Herbicidal action against AMARE: % activity: 100 = plants have died, 0 = like control plants; settings: for Herbicidal action against AMARE: comparative experiment, 20 g of a.i./ha
# In short: as §1
# Abutilon theophrasti = assay: Pre-emergence herbicidal action, ABUTH; design: key to Herbicidal action against ABUTH: % activity: 100 = plants have died, 0 = like control plants
# In short: as §1
# Polygonum convolvulus [3] = assay: Pre-emergence herbicidal action, POLCO
# In short: as §1
# Hordeum murinum = assay: Pre-emergence herbicidal action, HORMU; settings: dosage 320 g/ha, scored visually after 3 weeks vs untreated controls (100% = plants have died)
# Source text: as §2
# Polygonum convolvulus [4] = assay: Post-emergence herbicidal action, POLCO; settings: comparative experiment, post-emergence, 5 g of a.i./ha
# In short: (§3)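 Visual % damage versus untreated plants, scored about 3 weeks post-spray (100% = dead, 0% = like control). Greenhouse plants in sandy loam were treated at one-leaf stage with WP/EC formulations in water at 600 to 800 l/ha plus 0.2% wetting agent.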
# Viola tricolor = assay: Pre-emergence herbicidal action, VIOTR; design: key to Herbicidal action against VIOTR: % activity: 100 = plants have died, 0 = like control plants
# In short: as §1
# Cyperus esculentus [5] = assay: Pre-emergence herbicidal action, CYPES; design: key: % activity: 100 = plants have died, 0 = like control plants; settings: comparative experiment, 20 g of a.i./ha
# Source text: as §2
# Veronica persica = assay: Pre-emergence herbicidal action, VERPE; design: key to Herbicidal action against VERPE: % activity: 100 = plants have died, 0 = like control plants; settings: for Herbicidal action against VERPE: comparative experiment, 20 g of a.i./ha
# In short: as §1
# Alopecurus myosuroides [6] = assay: Pre-emergence herbicidal action, ALOMY; design: key: % activity: 100 = plants have died, 0 = like control plants; settings: comparative experiment, 20 g of a.i./ha
# Source text: as §2
# Stellaria media [7] = assay: Post-emergence herbicidal action, STEME; design: key: % herbicidal action vs untreated; 100 = plants died, 0 = like control; settings: comparative experiment, post-emergence, 5 g of a.i./ha
# In short: as §3
# Amaranthus retroflexus [8] = assay: Post-emergence herbicidal action, AMARE; design: key: % herbicidal action vs untreated; 100 = plants died, 0 = like control; settings: comparative experiment, post-emergence, 5 g of a.i./ha
# In short: as §3
# Cyperus esculentus [9] = assay: Post-emergence herbicidal action, CYPES; design: key: % herbicidal action vs untreated; 100 = plants died, 0 = like control; settings: comparative experiment, post-emergence, 5 g of a.i./ha
# Experimental: (§4) [table] 2. Post-Emergence Herbicidal Action Against Harmful Plants Seeds of monocotyledonous and dicotyledonous weed and crop plants are laid out in sandy loam soil in wood-fiber pots, covered with soil and cultivated in a greenhouse under good growth conditions. 2 to 3 weeks after sowing, the test plants are treated at the one-leaf stage. The compounds of the invention, formulated in the form of wettable powders (WP) or as emulsion concentrates (EC), are then sprayed onto the green parts of the plants in the form of an aqueous suspension or emulsion at a water application rate equating to 600 to 800 l/ha, with addition of 0.2% wetting agent. After the test plants have been left to stand in the greenhouse under optimal growth conditions for about 3 weeks, the action of the preparations is assessed visually in comparison to untreated controls (herbicidal action in percent (%): 100% activity=the plants have died, 0% activity=like control plants). […] The tables below illustrate, in an exemplary manner, the post-emergence herbicidal action of the compounds according to the invention, the herbicidal activity being stated in percent. In the experiments that follow, herbicidal action of numerous inventive compounds and the known compounds that are structurally closest from D1 (WO 2012/028579 A1) and D2 (WO 2018/202535 A1) were compared under the above-specified conditions by the pre-emergence and post-emergence method. The example numbers given in the tables relate to the compounds disclosed in the respective documents. In addition to the compounds disclosed in D1 and D2, the following compounds V-1 to V-14 that are encompassed by D1 or D2 but are not compounds specified therein were used in the comparative experiments: • V-1: 2-(methylsulfanyl)-3-(methylsulfinyl)-N-(1-methyl-1H-tetrazol-5-yl)-4-(trifluoromethyl)benzamide • V-2: 2-(methylsulfanyl)-3-(methylsulfonyl)-N-(1-methyl-1H-tetrazol-5-yl)-4-(trifluoromethyl)benzamide • V-3: 2,3-bis(ethylsulfanyl)-N-(1-methyl-1H-tetrazol-5-yl)-4-(trifluoromethyl)benzamide • V-4: 2-chloro-3-(ethylsulfanyl)-N-(1-methyl-1H-tetrazol-5-yl)-4-(trifluoromethyl)benzamide • V-5: 2-chloro-4-iodo-3-(methylsulfanyl)-N-(1-methyl-1H-tetrazol-5-yl)benzamide • V-6: 2-chloro-4-iodo-3-(methylsulfinyl)-N-(1-methyl-1H-tetrazol-5-yl)benzamide • V-7: 2-chloro-4-iodo-3-(methylsulfonyl)-N-(1-methyl-1H-tetrazol-5-yl)benzamide • V-8: 2-bromo-3-(methylsulfanyl)-N-(1-methyl-1H-tetrazol-5-yl)-4-(trifluoromethyl)benzamide • V-9: 2-bromo-3-(methylsulfinyl)-N-(1-methyl-1H-tetrazol-5-yl)-4-(trifluoromethyl)benzamide • V-10: 2-bromo-3-(methylsulfonyl)-N-(1-methyl-1H-tetrazol-5-yl)-4-(trifluoromethyl)benzamide • V-11: 2-bromo-3-(ethylsulfanyl)-N-(1-methyl-1H-tetrazol-5-yl)-4-(trifluoromethyl)benzamide • V-12: 2-bromo-3-(ethylsulfinyl)-N-(1-methyl-1H-tetrazol-5-yl)-4-(trifluoromethyl)benzamide • V-13: 2-bromo-3-(ethylsulfonyl)-N-(1-methyl-1-1H-tetrazol-5-yl)-4-(trifluoromethyl)benzamide • V-14: 2-cyclopropyl-3-(ethylsulfanyl)-N-(1-methyl-1H-tetrazol-5-yl)-4-(trifluoromethyl)benzamide Herbicidal Pre-Emergence Action: […]
# Alopecurus myosuroides [10] = assay: Post-emergence herbicidal action, ALOMY; design: key: % herbicidal action vs untreated; 100 = plants died, 0 = like control; settings: comparative experiment, post-emergence, 5 g of a.i./ha
# Experimental: as §4
# [11] = comparative experiment, 20 g of a.i./ha
# [12] = dosage 320 g/ha, scored visually after 3 weeks vs untreated controls (100% = plants have died)
compound,measurement,setting,value
CSc1c(C(=O)Nc2nnnn2C)ccc(C(F)(F)F)c1CS(C)(=O)=O [Example 1-163],Herbicidal action against ECHCG,Echinochloa crus-galli; [11],90
same,herbicidal activity ECHCG,Echinochloa crus-galli; [12],100%
same,herbicidal activity STEME,Stellaria media [1]; [12],100%
same,herbicidal activity SETVI,Setaria viridis; [12],100%
same,herbicidal activity MATIN,Matricaria inodora; [12],100%
same,herbicidal activity PHBPU,Pharbitis purpurea,80%
same,herbicidal activity AMARE,Amaranthus retroflexus [2]; [12],100%
same,herbicidal activity ABUTH,Abutilon theophrasti; [12],100%
same,Herbicidal action against POLCO,Polygonum convolvulus [3]; [11],70
same,herbicidal activity POLCO,Polygonum convolvulus [3]; [12],100%
same,herbicidal activity HORMU,Hordeum murinum,90%
same,Herbicidal action against POLCO,Polygonum convolvulus [4],70
same,herbicidal activity VIOTR,Viola tricolor; [12],100%
same,Herbicidal action against CYPES,Cyperus esculentus [5],70
same,herbicidal activity VERPE,Veronica persica; [12],100%
"Cn1nnnc1NC(=O)c1ccc(C(F)(F)F)c(S(C)(=O)=O)c1Br [Example V-10, 2-bromo-3-(methylsulfonyl)-N-(1-methyl-1H-tetrazol-5-yl)-4-(trifluoromethyl)benzamide, reference compound]",Herbicidal action against ALOMY,Alopecurus myosuroides [6],10
same,Herbicidal action against VERPE,Veronica persica,60
"CSc1c(I)ccc(C(=O)Nc2nnnn2C)c1Cl [Example V-5, 2-chloro-4-iodo-3-(methylsulfanyl)-N-(1-methyl-1H-tetrazol-5-yl)benzamide, reference compound]",Herbicidal action against STEME,Stellaria media [7],10
same,pest or weed control at 20 g/ha,Echinochloa crus-galli; [11],0%
same,Herbicidal action against STEME,Stellaria media [1],0
same,Herbicidal action against SETVI,Setaria viridis,0
same,Herbicidal action against MATIN,Matricaria inodora,20
same,Herbicidal action against AMARE,Amaranthus retroflexus [2],70
same,Herbicidal action against AMARE,Amaranthus retroflexus [8],70
same,Herbicidal action against CYPES,Cyperus esculentus [9],10
same,Herbicidal action against ALOMY,Alopecurus myosuroides [10],40
same,Herbicidal action against CYPES,Cyperus esculentus [5],0
same,Herbicidal action against VERPE,Veronica persica,0
"Cn1nnnc1NC(=O)c1ccc(C(F)(F)F)c([S+](C)[O-])c1Br (stereo not drawn) [Example V-9, 2-bromo-3-(methylsulfinyl)-N-(1-methyl-1H-tetrazol-5-yl)-4-(trifluoromethyl)benzamide, reference compound]",pest or weed control at 20 g/ha,Echinochloa crus-galli; [11],60%
same,Herbicidal action against ALOMY,Alopecurus myosuroides [6],20
same,Herbicidal action against STEME,Stellaria media [1],60
same,Herbicidal action against SETVI,Setaria viridis,40
same,Herbicidal action against VIOTR,Viola tricolor; [11],70
"Cn1nnnc1NC(=O)c1ccc(I)c([S+](C)[O-])c1Cl (stereo not drawn) [Example V-6, 2-chloro-4-iodo-3-(methylsulfinyl)-N-(1-methyl-1H-tetrazol-5-yl)benzamide, reference compound]",Herbicidal action against ALOMY,Alopecurus myosuroides [6],30
same,Herbicidal action against STEME,Stellaria media [1],0
same,Herbicidal action against SETVI,Setaria viridis,60
same,Herbicidal action against MATIN,Matricaria inodora,60
same,Herbicidal action against AMARE,Amaranthus retroflexus [2],50
same,Herbicidal action against ABUTH,Abutilon theophrasti; [11],40
